# Like-named read-outs stand apart in the source and are kept apart here. Non-standard residues stand in square brackets, D forms with d. Residues, ends and D or L forms follow the SMILES beside them. Sar = CNCC(=O)O
# Target: T1, furin (Homo sapiens, UniProt P09958)
# T1 construct: made in house; host or cells: Drosophila S2 cells (Invitrogen expression system)
# Test: biochemical
# Settings: furin, Pyr-RTKR-AMC substrate, read-out: Ki
# [1] = alanine scanning mutagenesis of the H5 furin cleavage sequence (Table 2)
# [2] = optimization of the inhibitory peptides (Table 3)
# T1 sequence (P09958 108-794 limits assumed): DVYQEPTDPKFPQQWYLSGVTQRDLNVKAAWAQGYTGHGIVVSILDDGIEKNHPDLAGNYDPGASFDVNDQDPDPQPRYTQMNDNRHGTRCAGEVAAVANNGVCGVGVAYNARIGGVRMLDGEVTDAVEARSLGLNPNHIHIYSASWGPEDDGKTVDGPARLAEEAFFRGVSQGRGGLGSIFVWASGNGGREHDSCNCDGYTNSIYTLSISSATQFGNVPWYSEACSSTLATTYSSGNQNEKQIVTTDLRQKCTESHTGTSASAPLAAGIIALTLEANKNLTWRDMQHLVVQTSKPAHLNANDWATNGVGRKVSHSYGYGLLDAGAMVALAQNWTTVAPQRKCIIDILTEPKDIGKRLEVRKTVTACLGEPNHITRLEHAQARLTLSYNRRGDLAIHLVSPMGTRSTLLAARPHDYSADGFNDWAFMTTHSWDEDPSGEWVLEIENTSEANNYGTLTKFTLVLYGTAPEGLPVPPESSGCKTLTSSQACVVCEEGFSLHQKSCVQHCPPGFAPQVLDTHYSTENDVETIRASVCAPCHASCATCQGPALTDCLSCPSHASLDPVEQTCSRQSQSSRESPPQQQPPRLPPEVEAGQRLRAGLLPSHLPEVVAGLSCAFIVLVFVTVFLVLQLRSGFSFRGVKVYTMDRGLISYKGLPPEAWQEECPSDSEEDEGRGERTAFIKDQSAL
SMILES,Ki [1] [nM],Ki [2] [nM]
C[C@H](NC(=O)[C@H](C)NC(=O)[C@H](CCCNC(=N)N)NC(=O)[C@H](CCCNC(=N)N)NC(=O)[C@H](CCC(=O)O)NC(=O)[C@H](CCCNC(=N)N)NC(=O)[C@@H]1CCCN1C(=O)[C@@H](N)[C@@H](C)O)C(=O)N[C@@H](CCCCN)C(=O)N[C@@H](CCCNC(=N)N)C(=O)NCC(N)=O (H-TPRERRAAKRG-NH2),> 100,
C[C@@H](O)[C@H](N)C(=O)N1CCC[C@H]1C(=O)N[C@@H](CCC(N)=O)C(=O)N[C@@H](CCCNC(=N)N)C(=O)N[C@@H](CCCCN)C(=O)N[C@@H](CCCNC(=N)N)C(=O)N[C@@H](CCCNC(=N)N)C(=O)N[C@@H](CCCNC(=N)N)C(=O)N[C@@H](CCCCN)C(=O)N[C@@H](CCCCN)C(=O)N[C@@H](CCCNC(=N)N)C(=O)NCC(N)=O,,> 100
C[C@@H](O)[C@H](N)C(=O)N1CCC[C@H]1C(=O)N[C@@H](CCC(N)=O)C(=O)N[C@@H](CCCNC(=N)N)C(=O)N[C@@H](CC(=O)O)C(=O)N[C@@H](CCCNC(=N)N)C(=O)N[C@@H](CCCNC(=N)N)C(=O)N[C@@H](CCCNC(=N)N)C(=O)N[C@@H](CCCCN)C(=O)N[C@@H](CCCCN)C(=O)N[C@@H](CCCNC(=N)N)C(=O)NCC(N)=O (H-TPQRDRRRKKRG-NH2),,> 100
C[C@H](NC(=O)[C@H](C)NC(=O)[C@H](CCCNC(=N)N)NC(=O)[C@@H]1CCCN1C(=O)[C@@H](N)[C@@H](C)O)C(=O)N[C@@H](CCCNC(=N)N)C(=O)N[C@@H](CCCNC(=N)N)C(=O)N[C@@H](CCCCN)C(=O)N[C@@H](CCCCN)C(=O)N[C@@H](CCCNC(=N)N)C(=O)N(C)CC(N)=O (H-TPRAARRKKR[Sar]-NH2),> 100,
C[C@@H](O)[C@H](N)C(=O)N1CCC[C@H]1C(=O)N[C@@H](CCC(N)=O)C(=O)N[C@@H](CCCNC(=N)N)C(=O)N[C@H](CCCNC(=N)N)C(=O)N[C@@H](CCCNC(=N)N)C(=O)N[C@@H](CCCNC(=N)N)C(=O)N[C@@H](CCCNC(=N)N)C(=O)N[C@@H](CCCCN)C(=O)N[C@@H](CCCCN)C(=O)N[C@@H](CCCNC(=N)N)C(=O)NCC(N)=O [TPQRrRRRKKRG],,> 100
CC(C)[C@H](NC(=O)[C@H](CCCNC(=N)N)NC(=O)[C@H](CCCCN)NC(=O)[C@H](C)NC(=O)[C@H](CCCNC(=N)N)NC(=O)[C@H](CCCNC(=N)N)NC(=O)[C@H](CCCNC(=N)N)NC(=O)[C@H](CCC(=O)O)NC(=O)[C@H](CCCNC(=N)N)NC(=O)[C@@H]1CCCN1C(=O)[C@@H](N)[C@@H](C)O)C(N)=O (H-TPRERRRAKRV-NH2),> 100,
CC(C)C[C@H](NC(=O)[C@H](CCCNC(=N)N)NC(=O)[C@H](CCCCN)NC(=O)[C@H](CCCCN)NC(=O)[C@H](CCCNC(=N)N)NC(=O)[C@H](CCCNC(=N)N)NC(=O)[C@H](CCCNC(=N)N)NC(=O)[C@H](C)NC(=O)[C@H](CCCNC(=N)N)NC(=O)[C@H](CCC(N)=O)NC(=O)[C@@H]1CCCN1C(=O)[C@@H](N)[C@@H](C)O)C(N)=O (H-TPQRARRRKKRL-NH2),,> 100
CC(C)[C@H](NC(=O)[C@H](CCCNC(=N)N)NC(=O)[C@H](CCCCN)NC(=O)[C@H](CCCCN)NC(=O)[C@H](CCCNC(=N)N)NC(=O)[C@H](CCCNC(=N)N)NC(=O)[C@H](C)NC(=O)[C@H](C)NC(=O)[C@H](C)NC(=O)[C@@H]1CCCN1C(=O)[C@@H](N)[C@@H](C)O)C(N)=O (H-TPAAARRKKRV-NH2),> 100,
C[C@H](NC(=O)[C@H](CCC(=O)O)NC(=O)[C@H](CCCNC(=N)N)NC(=O)[C@@H]1CCCN1C(=O)[C@@H](N)[C@@H](C)O)C(=O)N[C@@H](CCCNC(=N)N)C(=O)N[C@@H](CCCNC(=N)N)C(=O)N[C@@H](CCCCN)C(=O)N[C@@H](CCCCN)C(=O)N[C@@H](CCCNC(=N)N)C(N)=O (H-TPREARRKKR-NH2),> 100,
CC(C)[C@H](NC(=O)[C@H](CCCNC(=N)N)NC(=O)[C@H](CCCCN)NC(=O)[C@H](CCCCN)NC(=O)[C@H](CCCNC(=N)N)NC(=O)[C@H](CCCNC(=N)N)NC(=O)[C@H](CCCNC(=N)N)NC(=O)[C@H](C)NC(=O)[C@H](CCCNC(=N)N)NC(=O)[C@H](CCC(N)=O)NC(=O)[C@@H]1CCCN1C(=O)[C@@H](N)[C@@H](C)O)C(N)=O (H-TPQRARRRKKRV-NH2),,48
CC[C@H](C)[C@H](NC(=O)[C@H](CCCNC(=N)N)NC(=O)[C@H](CCCCN)NC(=O)[C@H](CCCCN)NC(=O)[C@H](CCCNC(=N)N)NC(=O)[C@H](CCCNC(=N)N)NC(=O)[C@H](CCCNC(=N)N)NC(=O)[C@H](C)NC(=O)[C@H](CCCNC(=N)N)NC(=O)[C@H](CCC(N)=O)NC(=O)[C@@H]1CCCN1C(=O)[C@@H](N)[C@@H](C)O)C(N)=O (H-TPQRARRRKKRI-NH2),,> 100
C[C@@H](O)[C@H](N)C(=O)N1CCC[C@H]1C(=O)N[C@@H](CCCN=C(N)N)C(=O)NCC(=O)N[C@@H](CCCN=C(N)N)C(=O)N[C@@H](CCCN=C(N)N)C(=O)N[C@@H](CCCN=C(N)N)C(=O)N[C@@H](CCCCN)C(=O)N[C@@H](CCCCN)C(=O)N[C@@H](CCCN=C(N)N)C(=O)NCC(N)=O (H-TPRGRRRKKRG-NH2),,47
CC(C)[C@H](NC(=O)[C@H](CCCNC(=N)N)NC(=O)[C@H](CCCCN)NC(=O)[C@H](CCCCN)NC(=O)[C@H](CCCNC(=N)N)NC(=O)[C@H](CCCNC(=N)N)NC(=O)[C@H](C)NC(=O)[C@H](CCC(=O)O)NC(=O)[C@H](CCCNC(=N)N)NC(=O)[C@@H]1CCCN1C(=O)[C@@H](N)[C@@H](C)O)C(N)=O (H-TPREARRKKRV-NH2),> 100,
C[C@H](NC(=O)[C@H](C)NC(=O)[C@@H]1CCCN1C(=O)[C@@H](N)[C@@H](C)O)C(=O)N[C@@H](C)C(=O)N[C@@H](CCCNC(=N)N)C(=O)N[C@@H](CCCNC(=N)N)C(=O)N[C@@H](CCCCN)C(=O)N[C@@H](CCCCN)C(=O)N[C@@H](CCCNC(=N)N)C(=O)N(C)CC(N)=O (H-TPAAARRKKR[Sar]-NH2),> 100,
C[C@@H](O)[C@H](N)C(=O)N1CCC[C@H]1C(=O)N[C@@H](CCC(N)=O)C(=O)N[C@@H](CCCNC(=N)N)C(=O)N[C@@H](CCC(=O)O)C(=O)N[C@@H](CCCNC(=N)N)C(=O)N[C@@H](CCCNC(=N)N)C(=O)N[C@@H](CCCNC(=N)N)C(=O)N[C@@H](CCCCN)C(=O)N[C@@H](CCCCN)C(=O)N[C@@H](CCCNC(=N)N)C(=O)NCC(N)=O,,> 100
C[C@H](NC(=O)[C@H](C)NC(=O)[C@H](CCCNC(=N)N)NC(=O)[C@H](CCCNC(=N)N)NC(=O)[C@H](CCC(=O)O)NC(=O)[C@H](CCCNC(=N)N)NC(=O)[C@@H]1CCCN1C(=O)[C@@H](N)[C@@H](C)O)C(=O)N[C@@H](CCCCN)C(=O)N[C@@H](CCCNC(=N)N)C(N)=O (H-TPRERRAAKR-NH2),> 100,
C[C@H](NC(=O)[C@H](CCCNC(=N)N)NC(=O)[C@H](CCC(N)=O)NC(=O)[C@@H]1CCCN1C(=O)[C@@H](N)[C@@H](C)O)C(=O)N[C@@H](CCCNC(=N)N)C(=O)N[C@@H](CCCNC(=N)N)C(=O)N[C@@H](CCCNC(=N)N)C(=O)N[C@@H](CCCCN)C(=O)N[C@@H](CCCCN)C(=O)N[C@@H](CCCNC(=N)N)C(=O)N[C@@H](CO)C(N)=O (H-TPQRARRRKKRS-NH2),,> 100
C[C@H](NC(=O)[C@H](CCCNC(=N)N)NC(=O)[C@@H]1CCCN1C(=O)[C@@H](N)[C@@H](C)O)C(=O)N[C@@H](CCCNC(=N)N)C(=O)N[C@@H](CCCNC(=N)N)C(=O)N[C@@H](CCCNC(=N)N)C(=O)N[C@@H](CCCCN)C(=O)N[C@@H](CCCCN)C(=O)N[C@@H](CCCNC(=N)N)C(N)=O,138,
C[C@H](NC(=O)[C@H](C)NC(=O)[C@H](CCCNC(=N)N)NC(=O)[C@@H]1CCCN1C(=O)[C@@H](N)[C@@H](C)O)C(=O)N[C@@H](CCCNC(=N)N)C(=O)N[C@@H](CCCNC(=N)N)C(=O)N[C@@H](CCCCN)C(=O)N[C@@H](CCCCN)C(=O)N[C@@H](CCCNC(=N)N)C(N)=O (H-TPRAARRKKR-NH2),> 100,
